Measurements reported in patent US9986723B2, “Screen and use of therapeutics for pancreatic ductal adenocarcinoma” (The Board of Regents of the University of Texas System, priority 2014, dated 2018).

Assays:
cell migration = experiment: Scratch migration assay; assay type: cell-based; conditions: warfarin 2 μM, 16 hrs
Experimental: (FIG. 24A) HEK293 cells engineered to stably express recombinant Gas6 were grown in the presence of Vitamin K or Vitamin K+warfarin. Gas6 levels and γ-carboxylation were assayed by immunoblotting conditioned media. Conditioned media from untransfected HEK293 cells was used as a negative control. (FIG. 24B) Panc1 cells were grown overnight in media with 1% serum with no additions (NT), warfarin (2 μM) or BGB324 (2 μM). Lysates were probed for total Axl (tAxl) and phosphorylated Axl (pAxl). (FIG. 24C) Panc1 cells were grown in the presence of control media, Vitamin K, warfarin or warfarin+Vitamin K. The level of phosphorylated Axl (pAXL, red) was determined by immunofluorescence. (FIG. 24D) Panc1 cells were grown overnight in media with 1% serum with no additions (control), warfarin (1 μM), Gas6 (1.3 nM) or Gas6+warfarin. Lysates were probed for phosphorylated Akt (pAkt) and actin. (FIG. 24E) Lysates from Panc1 tumors harvested from mice treated with control or warfarin were probed for expression of tAxl, pAxl, actin, pAKT, tAKT, and cleaved Parp. (FIG. 24F) The effect of warfarin on cell migration was assessed by a ‘scratch’ assay. Monolayers of the indicted cells were wounded with a pipet tip. The cells were incubated in media containing 2% serum+/−warfarin (2 μM) or media containing 2% serum+Gas6 (1.3 nM)+/−warfarin.

Panc1 = experiment: MTS cell growth assay, gemcitabine +/- warfarin; assay type: cell-based, human; conditions: warfarin 2 μM
Experimental: (§1) Cytotoxicity and augmentation of chemotherapy response was measured by MTS assays conducted in 96-well plates; cells were plated on day 0 and drug was added on day 1 in 4-fold dilutions. Maximum concentration of 2,000 nmol/L for gemcitabine was used with or without the addition of a constant concentration of 2 μM warfarin or 1.1 μM 10C9. Relative cell number was determined by adding MTS (Promega; final concentration […]), incubating for 1 to 3 hours at 37° C., and reading absorbance. Drug sensitivity curves and IC50s were calculated using in-house software.

ASPC = experiment: MTS cell growth assay, gemcitabine +/- warfarin; assay type: cell-based, human; conditions: warfarin 2 μM
Experimental: as §1

Capan-EMT cells = Capan-EMT cells (Capan-1 on collagen with TGFβ), ICC; assay type: cell-based, human; conditions: SFM overnight
Experimental: FIGS. 32A-C. Acquisition of Axl expression sensitizes Capan-EMT cells to warfarin. (FIG. 32A) Capan-1 cells cultured on collagen were analyzed by flow cytometry for Axl expression. The positive gate was set using a control IgG and 10C9 was used to detect Axl. […] (FIG. 32B) Capan-EMT cells were cultured in SFM overnight in the absence (control) or presence of warfarin and expression Axl, E-Cadherin, and cleaved caspase 3 was determined by ICC. Representative images are shown. (FIG. 32C) The expression Zeb1, Snail, and Twist was determined by qPCR in Capan-1 and Capan-EMT cells.
In vitro epithelial to mesenchymal transition assays. In vitro, mesenchymal transition was induced by incubating cells on chamber slides coated with collagen and adding TGF-β (20 ng/ml) to media with 5% serum for 48 hours. Media was then replaced with 1% serum and fresh TGF-β with or without warfarin (2 μM) for an additional 48 hours. Cells were the evaluated by immunocytochemistry by fixing in acetone, permeabilizing with 0.5% Brij, and incubating overnight with primary antibody: Axl, p-Axl, (R&D Systems); Vimentin (phosphoSolutions); Zeb1, E-Cadherin, and β-Catenin (Santa Cruz). The effect of Gas6 signaling on EMT was evaluated by seeding cells overnight and incubating with Gas6 (100 ng/ml) with or without warfarin for 48 hours. Cells were evaluated by ICC as described.

[1] = system: AsPC-1, Mia PaCa-2, and Capan-1 cells; experiment: Soft agar anchorage-independent growth assay; assay type: cell-based, human; conditions: warfarin 2 μM, 14 days; Axl-expressing cells
Experimental: FIGS. 25A-I. Axl inhibition reduces colony formation and enhances chemotherapy. (FIGS. 25A-C) parental Mia PaCa-2 cells or Mia PaCa-2 cells stably transfected with shRNA targeting Axl (Mia shAxl) were grown as spheroids in matrigel for 7 days in the presence or absence of warfarin (200 ng/ml), n=4/condition. Mia PaCa-2 cell colonies form large stellate colonies characteristic of invasive tumor growth. Colonies and cognate cell projections were imaged (FIG. 25A) with a Nikon Phase contrast microscope using 40× and 200× magnification. Mean total colony number (FIG. 25B) and total colony area+/−s.d. (FIG. 25C) reflective of invasive growth were calculated using Image J image analysis. Scale bar, 100 μm. ****, p<0.001 vs Mia PaCa-2 NT; ##, p<0.01; ###, p<0.005. by ANOVA with Tukey's MCT. […] (FIG. 25E) liver metastases were quantified after intrasplenic injection of C5LM2 cells. […] Mice were sacrificed when control treated animals were moribund and primary and metastatic burden was determined. […]
Anchorage-independent growth assays were performed by coating 12 well plates with 0.5-0.75% agar. […] Fresh media and drug were added twice weekly and colonies were measured by light microscopy at 2 weeks; assays were performed in quadruplicate.

CC(=O)CC(c1ccccc1)c1c(O)c2ccccc2oc1=O (racemic) [Warfarin]
basal and Gas6-induced cell migration (% wound closure) (cell migration): reduced | Fold Reduction of gemcitabine IC50 in presence of warfarin (Panc1): 211 fold | Fold Reduction of gemcitabine IC50 in presence of warfarin (ASPC): 8.4 fold | sensitivity to warfarin (Axl, E-cadherin, cleaved caspase-3) (Capan-EMT cells): sensitive | anchorage independent growth [1]: inhibited
